We go through eleven compounds from patent publication US12258328B2, “6-membered heteroaryl-containing aminopyridine compounds as EGFR inhibitors” (YUHAN CORPORATION, priority 2021, dated 2025).

Experiment [1] has as its target EGFR del19/C797S (Homo sapiens, UniProt P00533, C797S/DEL746-750). Nature of the experiment: Biochemical EGFR kinase assay (Lance Ultra TR-FRET), double mutant del19/C797S. The method in brief:
(§1)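 In this biochemical assay, phosphorylation after a one-hour room-temperature reaction was detected with europium-labelled anti-phosphopeptide antibody at 2 nM final concentration.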
(In general: TR-FRET usually uses a lanthanide donor and a delayed reading to cut background.)

Experiment [2] has as its target EGFR L858R/C797S (Homo sapiens, UniProt P00533, C797S/L858R). Nature of the experiment: Biochemical EGFR kinase assay (Lance Ultra TR-FRET), double mutant L858R/C797S. In short, it runs like this: as §1
In experiment [3] the target is EGFR wildtype (Homo sapiens, UniProt P00533). Nature of the experiment: Biochemical EGFR kinase assay (Lance Ultra TR-FRET), wildtype. In short, it runs like this:
as §1

In experiment [4] the target is EGFR del19/T790M/C797S (Homo sapiens, UniProt P00533, C797S/DEL746-750/T790M). Nature of the experiment: Biochemical EGFR kinase assay (Lance Ultra TR-FRET), triple mutant del19/T790M/C797S. In short, it runs like this:
as §1

The target in experiment [5] is EGFR L858R/T790M/C797S (Homo sapiens, UniProt P00533, C797S/L858R/T790M). Nature of the experiment: Biochemical EGFR kinase assay (Lance Ultra TR-FRET), triple mutant L858R/T790M/C797S. The method in brief: as §1
Where [6] appears, read: ATP at Km, read-out: IC50 del19/C797S, Km ATP.
The mark [7] stands for this setting: ATP at Km, read-out: IC50 L858R/C797S, Km ATP.
Setting [8] is: ATP at Km, read-out: IC50 WT, Km ATP.
The mark [9] stands for this setting: ATP at Km, read-out: IC50 del19/T790M/C797S, Km ATP.
[10] abbreviates: IC50 del19/T790M/C797S, 100 μM ATP.
[11] abbreviates: ATP at Km, read-out: IC50 L858R/T790M/C797S, Km ATP.
Setting [12] is: IC50 L858R/T790M/C797S, 100 μM ATP.

Where two headings read alike, the source gives them in different places.

EGFR del19/T790M/C797S, sequence (P00533 with tags, fused parts or gaps DEL746-750/T790M/C797S): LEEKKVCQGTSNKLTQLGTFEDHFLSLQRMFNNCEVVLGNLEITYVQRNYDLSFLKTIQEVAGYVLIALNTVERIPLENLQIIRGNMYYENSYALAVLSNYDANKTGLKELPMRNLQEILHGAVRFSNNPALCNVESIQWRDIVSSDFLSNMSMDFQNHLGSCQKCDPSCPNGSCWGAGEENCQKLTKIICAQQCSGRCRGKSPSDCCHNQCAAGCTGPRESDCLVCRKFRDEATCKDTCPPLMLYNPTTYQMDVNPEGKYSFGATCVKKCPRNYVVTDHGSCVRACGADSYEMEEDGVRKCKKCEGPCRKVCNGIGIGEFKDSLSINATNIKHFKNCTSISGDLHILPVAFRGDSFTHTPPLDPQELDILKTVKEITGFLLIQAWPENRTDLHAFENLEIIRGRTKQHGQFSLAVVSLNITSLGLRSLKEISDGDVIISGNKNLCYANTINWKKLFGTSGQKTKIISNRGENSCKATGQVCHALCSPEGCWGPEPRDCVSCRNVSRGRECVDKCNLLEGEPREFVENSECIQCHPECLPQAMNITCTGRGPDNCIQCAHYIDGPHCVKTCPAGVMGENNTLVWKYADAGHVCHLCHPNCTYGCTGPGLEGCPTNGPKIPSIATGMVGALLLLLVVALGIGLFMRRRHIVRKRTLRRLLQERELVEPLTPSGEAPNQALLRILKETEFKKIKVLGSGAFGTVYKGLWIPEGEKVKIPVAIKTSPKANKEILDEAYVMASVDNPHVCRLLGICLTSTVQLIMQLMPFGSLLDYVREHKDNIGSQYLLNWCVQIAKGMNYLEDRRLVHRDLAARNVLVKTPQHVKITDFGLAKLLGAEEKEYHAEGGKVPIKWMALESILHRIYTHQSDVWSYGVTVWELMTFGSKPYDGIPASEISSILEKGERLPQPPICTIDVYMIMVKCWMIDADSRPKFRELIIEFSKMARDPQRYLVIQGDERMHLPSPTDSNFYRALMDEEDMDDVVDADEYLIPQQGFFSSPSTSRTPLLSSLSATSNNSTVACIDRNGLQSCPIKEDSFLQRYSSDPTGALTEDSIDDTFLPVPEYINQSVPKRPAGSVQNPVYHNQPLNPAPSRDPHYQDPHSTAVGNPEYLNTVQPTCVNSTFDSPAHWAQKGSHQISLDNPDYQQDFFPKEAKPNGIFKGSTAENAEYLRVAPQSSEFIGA
EGFR L858R/C797S, sequence (P00533 25-1210 C797S/L858R): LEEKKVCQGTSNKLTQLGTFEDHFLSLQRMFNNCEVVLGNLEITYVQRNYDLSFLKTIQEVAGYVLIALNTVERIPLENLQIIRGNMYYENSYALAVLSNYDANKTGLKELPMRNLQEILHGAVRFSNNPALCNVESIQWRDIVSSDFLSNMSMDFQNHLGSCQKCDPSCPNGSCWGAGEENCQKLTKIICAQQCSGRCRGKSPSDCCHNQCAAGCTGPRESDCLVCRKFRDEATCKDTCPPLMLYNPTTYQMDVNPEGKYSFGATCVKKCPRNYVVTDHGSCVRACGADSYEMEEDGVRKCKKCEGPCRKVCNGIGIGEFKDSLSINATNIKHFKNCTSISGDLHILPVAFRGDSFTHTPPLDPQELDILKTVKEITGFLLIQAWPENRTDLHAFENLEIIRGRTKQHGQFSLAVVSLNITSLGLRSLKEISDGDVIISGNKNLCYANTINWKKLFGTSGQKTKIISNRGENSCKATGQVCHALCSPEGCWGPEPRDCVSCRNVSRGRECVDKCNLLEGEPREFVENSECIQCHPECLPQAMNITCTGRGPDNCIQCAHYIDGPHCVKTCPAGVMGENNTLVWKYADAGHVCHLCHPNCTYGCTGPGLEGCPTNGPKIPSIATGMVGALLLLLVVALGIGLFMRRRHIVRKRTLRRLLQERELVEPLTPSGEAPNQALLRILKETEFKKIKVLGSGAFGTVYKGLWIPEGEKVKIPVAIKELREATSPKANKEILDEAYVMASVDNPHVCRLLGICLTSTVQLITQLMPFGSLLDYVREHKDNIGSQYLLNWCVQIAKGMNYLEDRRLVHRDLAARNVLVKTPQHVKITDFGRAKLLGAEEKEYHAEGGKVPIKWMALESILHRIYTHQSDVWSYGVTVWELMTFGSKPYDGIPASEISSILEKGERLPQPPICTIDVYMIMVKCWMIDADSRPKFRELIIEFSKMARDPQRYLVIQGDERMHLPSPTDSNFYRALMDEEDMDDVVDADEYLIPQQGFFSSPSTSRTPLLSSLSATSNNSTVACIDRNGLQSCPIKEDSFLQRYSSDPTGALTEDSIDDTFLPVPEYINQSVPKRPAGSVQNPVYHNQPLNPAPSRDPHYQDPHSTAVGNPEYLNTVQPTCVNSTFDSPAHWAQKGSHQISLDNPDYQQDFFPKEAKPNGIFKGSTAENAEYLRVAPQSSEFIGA
EGFR L858R/T790M/C797S, sequence (P00533 25-1210 T790M/C797S/L858R): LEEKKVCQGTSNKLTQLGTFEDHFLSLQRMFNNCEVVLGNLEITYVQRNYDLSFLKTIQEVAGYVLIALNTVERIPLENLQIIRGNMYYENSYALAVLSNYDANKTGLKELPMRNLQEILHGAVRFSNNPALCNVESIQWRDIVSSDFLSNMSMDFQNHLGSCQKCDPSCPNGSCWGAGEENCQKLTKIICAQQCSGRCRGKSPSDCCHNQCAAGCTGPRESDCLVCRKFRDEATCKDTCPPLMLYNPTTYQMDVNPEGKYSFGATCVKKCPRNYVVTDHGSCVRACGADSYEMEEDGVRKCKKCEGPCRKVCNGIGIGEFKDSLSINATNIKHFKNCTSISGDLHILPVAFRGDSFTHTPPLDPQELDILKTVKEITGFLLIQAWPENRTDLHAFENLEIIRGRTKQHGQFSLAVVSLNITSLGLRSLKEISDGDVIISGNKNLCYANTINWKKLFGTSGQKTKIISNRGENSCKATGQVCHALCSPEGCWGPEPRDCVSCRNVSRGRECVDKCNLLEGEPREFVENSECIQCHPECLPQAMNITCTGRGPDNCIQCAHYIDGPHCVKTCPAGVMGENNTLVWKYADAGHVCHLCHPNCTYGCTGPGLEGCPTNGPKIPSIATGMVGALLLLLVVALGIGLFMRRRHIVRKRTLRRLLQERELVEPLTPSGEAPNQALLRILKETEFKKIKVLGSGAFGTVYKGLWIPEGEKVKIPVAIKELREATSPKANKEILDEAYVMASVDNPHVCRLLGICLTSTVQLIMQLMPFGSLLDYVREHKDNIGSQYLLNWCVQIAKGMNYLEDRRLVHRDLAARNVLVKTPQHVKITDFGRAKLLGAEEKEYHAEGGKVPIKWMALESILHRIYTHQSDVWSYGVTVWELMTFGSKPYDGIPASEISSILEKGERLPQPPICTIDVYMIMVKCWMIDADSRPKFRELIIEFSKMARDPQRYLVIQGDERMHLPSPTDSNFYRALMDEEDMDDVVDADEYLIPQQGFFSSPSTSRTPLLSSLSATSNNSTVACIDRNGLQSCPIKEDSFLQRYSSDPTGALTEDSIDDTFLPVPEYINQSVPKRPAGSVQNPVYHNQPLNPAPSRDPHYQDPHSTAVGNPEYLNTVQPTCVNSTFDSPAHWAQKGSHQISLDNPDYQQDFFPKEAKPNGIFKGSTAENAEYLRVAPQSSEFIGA
EGFR wildtype, sequence (P00533 25-1210): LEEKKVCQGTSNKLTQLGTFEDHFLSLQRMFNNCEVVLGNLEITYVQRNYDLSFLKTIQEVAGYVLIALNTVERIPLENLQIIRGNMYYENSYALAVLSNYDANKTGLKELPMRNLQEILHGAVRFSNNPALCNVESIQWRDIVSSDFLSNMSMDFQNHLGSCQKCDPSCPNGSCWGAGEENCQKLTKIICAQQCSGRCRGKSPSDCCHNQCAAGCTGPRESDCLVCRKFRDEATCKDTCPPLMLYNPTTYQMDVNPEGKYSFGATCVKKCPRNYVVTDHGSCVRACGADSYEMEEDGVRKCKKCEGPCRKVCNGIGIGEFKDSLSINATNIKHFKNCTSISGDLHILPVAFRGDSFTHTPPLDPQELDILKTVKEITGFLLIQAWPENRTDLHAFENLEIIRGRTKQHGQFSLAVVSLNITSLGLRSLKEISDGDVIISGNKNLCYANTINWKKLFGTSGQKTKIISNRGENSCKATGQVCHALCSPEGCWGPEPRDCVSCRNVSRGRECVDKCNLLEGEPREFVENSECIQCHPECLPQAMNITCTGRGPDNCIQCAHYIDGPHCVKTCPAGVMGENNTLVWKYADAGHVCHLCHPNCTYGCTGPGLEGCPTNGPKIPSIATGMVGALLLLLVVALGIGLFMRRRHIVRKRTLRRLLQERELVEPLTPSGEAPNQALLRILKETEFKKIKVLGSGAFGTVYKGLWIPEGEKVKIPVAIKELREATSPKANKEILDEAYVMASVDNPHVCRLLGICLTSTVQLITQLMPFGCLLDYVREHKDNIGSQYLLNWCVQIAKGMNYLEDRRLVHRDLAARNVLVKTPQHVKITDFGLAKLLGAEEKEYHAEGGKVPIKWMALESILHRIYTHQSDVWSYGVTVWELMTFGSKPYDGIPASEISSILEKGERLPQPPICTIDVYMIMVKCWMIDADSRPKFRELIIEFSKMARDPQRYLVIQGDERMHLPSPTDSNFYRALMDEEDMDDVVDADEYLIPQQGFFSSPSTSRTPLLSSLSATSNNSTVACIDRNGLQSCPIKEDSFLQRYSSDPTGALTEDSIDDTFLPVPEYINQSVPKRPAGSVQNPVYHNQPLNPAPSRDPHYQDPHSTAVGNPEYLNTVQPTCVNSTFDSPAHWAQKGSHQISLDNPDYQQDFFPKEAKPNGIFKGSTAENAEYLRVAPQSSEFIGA

As for `O=S(=O)(C1CC1)n1cc(-c2nccc(Nc3cc(N[C@H]4CC[C@@H](CO)CC4)c(-c4cc(OCCN5CCOCC5)ccn4)cn3)n2)cn1` [Example 212, ((1s,4s)-4-((6′-((2-(1-(Cyclopropylsulfonyl)-1H-pyrazol-4-yl)pyrimidin-4-yl)amino)-4-(2-morpholinoethoxy)-[2,3′-bipyridin]-4′-yl)amino)cyclohexyl)methanol], the IC50 in experiment [1] (setting [6]) was determined as 1.2 nM; in experiment [1] (IC50 del19/C797S, 100 μM ATP) it was 2.7 nM; in experiment [2] (setting [7]), 0.5 nM; in experiment [2] (IC50 L858R/C797S, 100 μM ATP), 18.7 nM; in experiment [3] (setting [8]), 3.4 nM; in experiment [3] (IC50 WT, 100 μM ATP) it was 7860 nM. For the same compound, the IC50 in experiment [4] (setting [9]) was 0.5 nM; in experiment [4] (setting [10]), 1 nM; in experiment [5] (setting [11]) it was 0.4 nM; in experiment [5] (setting [12]), 0.6 nM.

In the case of `CC(C)(O)[C@H]1CC[C@@H](Nc2cc(Nc3ccnc(-c4cnn(S(=O)(=O)C5CC5)c4)n3)ncc2-c2cc(OCCN3CCOCC3)ccn2)CC1` [Example 213, 2-((1s,4s)-4-((6′-((2-(1-(Cyclopropylsulfonyl)-1H-pyrazol-4-yl)pyrimidin-4-yl)amino)-4-(2-morpholinoethoxy)-[2,3′-bipyridin]-4′-yl)amino)cyclohexyl)propan-2-ol], the IC50 is 3.8 nM in experiment [1] (setting [6]); 7.7 nM in experiment [1] (IC50 del19/C797S, 100 μM ATP); 1.4 nM in experiment [2] (setting [7]); 85.4 nM in experiment [2] (IC50 L858R/C797S, 100 μM ATP); 0.6 nM in experiment [3] (setting [8]); over 10000 nM in experiment [3] (IC50 WT, 100 μM ATP). Further, the IC50 was 1.2 nM in experiment [4] (setting [9]), 0.8 nM in experiment [5] (setting [11]) and 1.3 nM in experiment [5] (setting [12]).

For `O=S(=O)(C1CC1)n1cc(-c2nccc(Nc3cc(N[C@H]4CC[C@@H](CO)CC4)c(-c4cc(NC5CC(F)(F)C5)ccn4)cn3)n2)cn1` [Example 214, ((1s,4s)-4-((6′-((2-(1-(Cyclopropylsulfonyl)-1H-pyrazol-4-yl)pyrimidin-4-yl)amino)-4-((3,3-difluorocyclobutyl)amino)-[2,3′-bipyridin]-4′-yl)amino)cyclohexyl)methanol], the IC50 was 1.8 nM in experiment [1] (setting [6]); 8 nM in experiment [1] (IC50 del19/C797S, 100 μM ATP); 2.2 nM in experiment [2] (setting [7]); 6.9 nM in experiment [2] (IC50 L858R/C797S, 100 μM ATP); 4.5 nM in experiment [3] (setting [8]); 711 nM in experiment [3] (IC50 WT, 100 μM ATP). In addition, the IC50 in experiment [4] (setting [9]) was found to be 3 nM; in experiment [4] (setting [10]), 5.6 nM; in experiment [5] (setting [11]) it was 3.5 nM; in experiment [5] (setting [12]) it was 4.5 nM.

For the compound `CC(C)(O)[C@H]1CC[C@@H](Nc2cc(Nc3ccnc(-c4cnn(S(=O)(=O)C5CC5)c4)n3)ncc2-c2cc(NC3CC(F)(F)C3)ccn2)CC1` [Example 215, 2-((1s,4s)-4-((6′-((2-(1-(Cyclopropylsulfonyl)-1H-pyrazol-4-yl)pyrimidin-4-yl)amino)-4-((3,3-difluorocyclobutyl)amino)-[2,3′-bipyridin]-4′-yl)amino)cyclohexyl)propan-2-ol], the IC50 in experiment [1] (setting [6]) stood at 7.8 nM; in experiment [1] (IC50 del19/C797S, 100 μM ATP) it was 36.4 nM; in experiment [2] (setting [7]), 13.6 nM; in experiment [2] (IC50 L858R/C797S, 100 μM ATP), 46.4 nM; in experiment [3] (setting [8]) it was 21.4 nM; in experiment [3] (IC50 WT, 100 μM ATP), 6110 nM. Besides, the IC50 amounted to 9.1 nM in experiment [4] (setting [9]), 25.4 nM in experiment [4] (setting [10]), 7.6 nM in experiment [5] (setting [11]) and 17.5 nM in experiment [5] (setting [12]).

For `CN(C)C[C@H]1CC[C@@H](Nc2cc(Nc3ccnc(-c4cnn(S(=O)(=O)C5CC5)c4)n3)ncc2-c2cc(NC3CC(F)(F)C3)ccn2)CC1` [Example 216, N^6′-(2-(1-(Cyclopropylsulfonyl)-1H-pyrazol-4-yl)pyrimidin-4-yl)-N^4-(3,3-difluorocyclobutyl)-N^4′-((1s,4s)-4-((dimethylamino)methyl)cyclohexyl)-[2,3′-bipyridine]-4,4′,6′-triamine], the IC50 in experiment [1] (setting [6]) came to 0.8 nM; in experiment [1] (IC50 del19/C797S, 100 μM ATP), 1.3 nM; in experiment [2] (setting [7]), 0.3 nM; in experiment [2] (IC50 L858R/C797S, 100 μM ATP) it was 1.4 nM; in experiment [3] (setting [8]) it was 0.8 nM; in experiment [3] (IC50 WT, 100 μM ATP), 136 nM. The IC50 in experiment [4] (setting [9]) amounted to 1.2 nM; in experiment [4] (setting [10]), 1.2 nM; in experiment [5] (setting [11]), 0.8 nM; in experiment [5] (setting [12]), 0.7 nM.

`CC(C)(O)[C@H]1CC[C@@H](Nc2cc(Nc3ccnc(-c4cnn(S(=O)(=O)C5CC5)c4)n3)ncc2-c2ccc(OCCN3CCC3)cn2)CC1` [Example 217, 2-((1s,4s)-4-((5-(2-(Azetidin-1-yl)ethoxy)-6′-((2-(1-(cyclopropylsulfonyl)-1H-pyrazol-4-yl)pyrimidin-4-yl)amino)-[2,3′-bipyridin]-4′-yl)amino)cyclohexyl)propan-2-ol]: the IC50 was found to be 0.2 nM in experiment [1] (setting [6]); 0.3 nM in experiment [1] (IC50 del19/C797S, 100 μM ATP); 0.2 nM in experiment [2] (setting [7]); 0.4 nM in experiment [2] (IC50 L858R/C797S, 100 μM ATP); 0.8 nM in experiment [3] (setting [8]); 118 nM in experiment [3] (IC50 WT, 100 μM ATP). Further, the IC50 in experiment [4] (setting [9]) was 0.8 nM; in experiment [4] (setting [10]), 0.7 nM; in experiment [5] (setting [11]), 0.3 nM; in experiment [5] (setting [12]), 0.3 nM.

As for `C[C@]1(O)CC[C@@H](Nc2cc(Nc3ccnc(-c4cnn(S(=O)(=O)C5CC5)c4)n3)ncc2-c2ccc(CC(F)(F)F)cn2)CC1` [Example 218, (1s,4s)-4-((6′-((2-(1-(Cyclopropylsulfonyl)-1H-pyrazol-4-yl)pyrimidin-4-yl)amino)-5-(2,2,2-trifluoroethyl)-[2,3′-bipyridin]-4′-yl)amino)-1-methylcyclohexan-1-ol], the IC50 in experiment [1] (IC50 del19/C797S, 100 μM ATP) is 7.1 nM; in experiment [2] (setting [7]) it was 3.6 nM; in experiment [2] (IC50 L858R/C797S, 100 μM ATP) it was 59.4 nM; in experiment [3] (setting [8]) it was 10.3 nM; in experiment [3] (IC50 WT, 100 μM ATP), over 10000 nM; in experiment [4] (setting [9]), 2.1 nM. In addition, the IC50 in experiment [4] (setting [10]) was 0.6 nM; in experiment [5] (setting [11]) it was 0.7 nM; in experiment [5] (setting [12]) it was 1.8 nM.

On to `O=S(=O)(C1CC1)n1cc(-c2nccc(Nc3cc(N[C@H]4CC[C@@H](CO)CC4)c(-c4ccc(CC(F)(F)F)cn4)cn3)n2)cn1` [Example 219, ((1s,4s)-4-((6′-((2-(1-(Cyclopropylsulfonyl)-1H-pyrazol-4-yl)pyrimidin-4-yl)amino)-5-(2,2,2-trifluoroethyl)-[2,3′-bipyridin]-4′-yl)amino)cyclohexyl)methanol], for which the IC50 in experiment [1] (setting [6]) is 4.9 nM; in experiment [1] (IC50 del19/C797S, 100 μM ATP), 8.7 nM; in experiment [2] (setting [7]), 2.9 nM; in experiment [2] (IC50 L858R/C797S, 100 μM ATP) it was 27.4 nM; in experiment [3] (setting [8]), 12.1 nM; in experiment [3] (IC50 WT, 100 μM ATP) it was 2670 nM. Moreover, the figures for the IC50 in experiment [4] (setting [9]), in experiment [4] (setting [10]) and in experiment [5] (setting [12]) were 3.2 nM, 1.8 nM and 2.9 nM, respectively.

For `CC(C)(O)[C@H]1CC[C@@H](Nc2cc(Nc3ccnc(-c4cnn(S(=O)(=O)C5CC5)c4)n3)ncc2-c2ccc(CC(F)(F)F)cn2)CC1` [Example 220, 2-((1s,4s)-4-((6′-((2-(1-(Cyclopropylsulfonyl)-1H-pyrazol-4-yl)pyrimidin-4-yl)amino)-5-(2,2,2-trifluoroethyl)-[2,3′-bipyridin]-4′-yl)amino)cyclohexyl)propan-2-ol], the IC50 was 27.8 nM in experiment [1] (setting [6]); 30.5 nM in experiment [1] (IC50 del19/C797S, 100 μM ATP); 25.9 nM in experiment [2] (setting [7]); 289 nM in experiment [2] (IC50 L858R/C797S, 100 μM ATP); 115 nM in experiment [3] (setting [8]); over 10000 nM in experiment [3] (IC50 WT, 100 μM ATP). In addition, the IC50 was 8.5 nM in experiment [4] (setting [9]), 2.3 nM in experiment [4] (setting [10]), 5.4 nM in experiment [5] (setting [11]) and 9.3 nM in experiment [5] (setting [12]).

On to `CN(C)C[C@H]1CC[C@@H](Nc2cc(Nc3ccnc(-c4cnn(S(=O)(=O)C5CC5)c4)n3)ncc2-c2ccc(CC(F)(F)F)cn2)CC1` [Example 221, N^6′-(2-(1-(Cyclopropylsulfonyl)-1H-pyrazol-4-yl)pyrimidin-4-yl)-N^4′-((1s,4s)-4-((dimethylamino)methyl)cyclohexyl)-5-(2,2,2-trifluoroethyl)-[2,3′-bipyridine]-4′,6′-diamine], for which the IC50 worked out at 1.1 nM in experiment [1] (setting [6]); 1 nM in experiment [2] (setting [7]); 5.7 nM in experiment [2] (IC50 L858R/C797S, 100 μM ATP); 2.1 nM in experiment [3] (setting [8]); 767 nM in experiment [3] (IC50 WT, 100 μM ATP); 1.1 nM in experiment [4] (setting [9]). The IC50 in experiment [4] (setting [10]) turned out to be 1.4 nM; in experiment [5] (setting [11]), 0.3 nM; in experiment [5] (setting [12]) it was 0.5 nM.

`O=S(=O)(C1CC1)n1cc(-c2nccc(Nc3cc(N[C@H]4CCC[C@H](CO)C4)c(-c4ccc(CC(F)(F)F)cn4)cn3)n2)cn1` [Example 222, ((1S,3S)-3-((6′-((2-(1-(Cyclopropylsulfonyl)-1H-pyrazol-4-yl)pyrimidin-4-yl)amino)-5-(2,2,2-trifluoroethyl)-[2,3′-bipyridin]-4′-yl)amino)cyclohexyl)methanol]: the IC50 was 8.9 nM in experiment [1] (setting [6]); 16.8 nM in experiment [1] (IC50 del19/C797S, 100 μM ATP); 11.7 nM in experiment [2] (setting [7]); 296 nM in experiment [2] (IC50 L858R/C797S, 100 μM ATP); 37.4 nM in experiment [3] (setting [8]); over 10000 nM in experiment [3] (IC50 WT, 100 μM ATP). The IC50 in experiment [4] (setting [9]) stood at 3.9 nM; in experiment [4] (setting [10]), 3.4 nM; in experiment [5] (setting [11]) it was 1.7 nM; in experiment [5] (setting [12]) it was 2 nM.
